# According to patent US10188633B2, “Identification of small molecules that facilitate therapeutic exon skipping” (The Regents of the University of California, priority 2011, dated 2019):
# Where a name gives a salt, the structure may show the parent alone.
# Tests used:
# DMD exon 51 = DMD exon 51 skipping in reprogrammed DMD patient fibroblasts fused to myotubes (GM05017, iDRM05017) with exon 51 AO; format: cell-based, human; settings: compound added 24 h after AO for two days; nested RT-PCR exons 43-52
# Description: (A) Differentiated primary mouse myotubes were transfected either with 100 nM 2′-O-methyl M23D, which targets exon 23 splice donor region or mock transfected for 24 hours after which the transfection reagent was removed, and myotubes were treated with different concentrations of Dantrolene for 48 hours. Nested RT-PCR was performed on cDNA between exons 20-26, as previously described. The 901 bp band is the full-length mRNA product, the 688 bp mRNA product is a single skip of exon 23, and the 550 bp mRNA product is a double skip of exons 22 and 23. (B) Mouse Dmd exon 23-skipped transcript levels were quantified using a taqman assay with primer-probe sets spanning the splice junction created by an exon 23 skip (22-24 join) relative to primers amplifying the splice junction of exons 22 and 23 (representing the full length mRNA), as previously described. […] Error bars represent standard deviation of qRT-PCR triplicates. (C) Patient derived fibroblasts with exon 45-50 deletion (confirmed by microarray, see FIG. 6) were immortalized with lentiviral hTERT and transduced with inducible lentiviral MyoD [26]. Cells were grown to confluence, induced for MyoD activity, and fused for 10 days in low serum differentiation media. On Day 7, h51AON [5′ […] 3′] (SEQ ID NO:2) (same sequence as Pro051) within human exon 51 was added at concentrations indicated. Twenty-four hours later Dantrolene or vehicle was added. Cells were harvested 2 days later and total RNA isolated. RT-PCR amplified a fragment of cDNA from exons 42-53 which was followed by a nested PCR to generate a fragment spanning exons 43-52. The 540 bp product is the full length DMD mRNA species and the 307 bp product indicates the exon 51 skip isoform. Quantitation was performed using the Agilent Bioanalyzer and represented as the skip/full-length mRNA ratio.
# Patient fibroblasts with a DMD exon 45-50 deletion were immortalized and transduced with a lenti-viral vector expressing inducible MyoD to create iDRMs (inducibly directly reprogrammable myotubes, specifically iDRM05017s). iDRM05017s were induced for MyoD activity and then cultured for 10 days in fusion media. On Day 7, AO was added for twenty-four hours then removed and Piperacetazine, Trifluoperazine Dihydrochloride, Fluphenazine Dihydrochloride or vehicle (Dimethyl sulfoxide; DMSO) were added in fresh media. After two days total RNA was harvested, cDNA reverse transcribed with a DMD specific primer in exon 54, and exon 51 skipping was detected by nested RT-PCR spanning exons 43-52. Quantitation of exon 51 skipping was performed using the Agilent Bioanalyzer and is represented as the proportion of exon 51 skipping. Error bars represent the standard deviation (SD) of 3 independent wells.
# Patient fibroblasts were transduced with HTERT and an inducible MyoD vector [26]. […] Exon 51 skipping activity was assessed in the context of transfecting an exon 51 2′-O-methyl AO with equivalent sequence to Pro051 seven days after fusion. This AO is directed at an exonic splicing enhancer (ESE) sequence within exon 51. The AO was removed prior to addition of dantrolene and cultures were harvested two days later. A nested RT-PCR was performed between DMD exons 43-52 and levels of exon 51 skipping were determined by quantitating capillary electrophoresis separated fragments representing skipped and unskipped DMD mRNA.
# exon skipping = assay: Counter screens, 16 point titrations and mdx mouse myotubes (validation of lead hits); format: cell-based
# Description: The cell line, which was adapted to allow the screening of thousands of compounds in multiple replicates, was obtained from Dr. Qi Lu. […]
# [1] = system: human DMD exon 50 GFP based reporter; assay: BioMol high throughput screen in Ex50-GFP reporter C2C12 myoblasts, with or without AON6; format: cell-based, mouse; settings: compound 10 uM; for Fluorescence Plate 1 / Fluorescence Plate 2 / Fluorescence Plate 3 / Fluorescence Plate 4 / Fluorescence Plate 5 / Fluorescence Plate 6: 48 h; for Average Fluorescence (n = 6): average of 6 replicate plates; for Average Fluorescence (n = 3): average of 3 replicate plates
# Description: Small molecule libraries were screened for exon skipping promoting activity in C2C12 myoblasts expressing a human DMD exon 50 GFP based reporter. […] In the reporter cells, successful skipping of DMD exon 50 creates in-frame GFP expression. Number of cells that were fluorescing was quantified using a high content cell imager in 384 well plate format. Fluorescence was normalized by subtracting the average fluorescence value of the carrier (DMSO) controls. Fluorescence readouts are plotted for the BioMol library screen both with (+AO) and without (−AO) from Source Plate 1 (containing the Orphan Ligand, Ion Channel, Enzyme Inhibitor, and Endocannabanoid libraries, n=300). Each point for the DMSO controls, all compounds, and the Top 5% from Source Plate 1 (n=15) represents the average normalized fluorescence of 6 replicates in the −AO screen and 3 replicates in the +AO screen. […] Individual points for dantrolene are plotted with the bold horizontal line indicating the median. The short horizontal lines interspersed among the data points indicate 1, 2, and 3 standard deviations away from the DMSO treatment mean fluorescence.
# In contrast to prior screens aimed at identifying small molecules which impact exon skipping, our screen is unique at least because it relies on robust quantitation of a skipping reporter in the context of a muscle lineage cell in the presence and absence of suboptimal AO. These screens were performed using a mouse muscle cell line (C2C12) expressing a human DMD exon 50 GFP based reporter selected to minimize experimental variation and sensitivity in the context of an automated and quantitative fluorescent scanning system.
# AO was added prior to small molecule incubation in an effort to identify molecules that facilitate AO skipping rather than AO delivery. The fluorescence induced by each compound was normalized to a vehicle controls per plate to correct for plate to plate variability. Fluorescence was averaged across replicate plates (n=6 without AO screen, n=3 with AO screen). Compounds were rank ordered based on average intensity of fluorescence and difference between the without AO and with AO screen (FIG. 1 and Table 2).
# A stable clone was generated from C2C12 cells transfected with a human exon 50 DMD GFP reporter (ex50GFP) that has been previously described. Ex50GFP reporter myoblasts were seeded into uncoated 384 well plates and were incubated for 4 hours either with or without 300 nM of 2′-O-methyl phosphorothioate AON6 [5′[…] 3′ (SEQ ID NO:1)] targeting the human exon 50 splice donor site. Cells were transfected with AON6 using the FUGENE (Roche) transfection reagent per manufacturer's instructions. Following AON6 incubation, each component of the BioMol library (n=503) was screened at 10 uM concentration with a final concentration of the DMSO carrier being 1%. Forty-eight hours later fluorescence was measured using the MicroXpress high content imager and analyzed using MetaXpress. Immediately preceding imaging, DNA was stained with Hoescht for 30 min. The BioMol screen without AO (−AO) was performed in 6 replicates, and the with AO (+AO) screen was performed in 3 replicates. For the screen analysis raw fluorescence values were normalized to carrier controls present on each plate by subtracting the values. Negative fluorescence values were set to 0. The data from each compound were averaged from all replicates. For secondary screening by 12 or 16 point dose response, Ex50GFP myoblasts or C2C12 cells without the reporter were seeded on uncoated 384 well plates. A sub-optimal dose of AON6 targeting DMD exon 50 was added for 4 hours.
# [2] = Without AON6 screen, normalized to DMSO carrier controls
# [3] = With AON6 screen, fluorescence normalized by subtracting DMSO carrier controls
# [4] = With AON6 screen, normalized to DMSO carrier controls
compound,measurement,setting,value
OCCN1CCN(CCCN2c3ccccc3Sc3ccc(C(F)(F)F)cc32)CC1 [Fluphenazine dihydrochloride],AO directed DMD exon 51 skipping,DMD exon 51,enhance AO directed DMD exon 51 skipping
Cc1c2ccncc2c(C)c2c1[nH]c1ccccc12 [Ellipticine],efficacy in counter screen and on mdx mouse myotubes,exon skipping,showing efficacy in counter screen and on mdx mouse myotubes
CN(C)CCCn1cc(C2=C(c3c[nH]c4ccccc34)C(=O)NC2=O)c2ccccc21 [GF 109203X],Fluorescence Plate 1,[1]; [2],22.19
same,Fluorescence Plate 2,[1]; [2],15.01
same,Fluorescence Plate 3,[1]; [2],13.67
same,Fluorescence Plate 4,[1]; [2],66.78
same,Fluorescence Plate 5,[1]; [2],64.46
same,Fluorescence Plate 6,[1]; [2],66.48
same,Average Fluorescence (n = 6),[1]; Without AON6 screen,41.76
same,efficacy in counter screen and on mdx mouse myotubes,exon skipping,showing efficacy in counter screen and on mdx mouse myotubes
CCOC(=O)Oc1c(OC)cc(C(=O)O[C@@H]2C[C@@H]3CN4CCc5c([nH]c6cc(OC)ccc56)[C@H]4C[C@@H]3[C@H](C(=O)OC)[C@H]2OC)cc1OC [Syrosingopine],efficacy in counter screen and on mdx mouse myotubes,exon skipping,showing efficacy in counter screen and on mdx mouse myotubes
CCCCN(CCCC)CCC(O)c1cc2c(Cl)cc(Cl)cc2c2cc(C(F)(F)F)ccc12.Cl (centres unmarked) [Halofantrine hydrochloride],efficacy in counter screen and on mdx mouse myotubes,exon skipping,showing efficacy in counter screen and on mdx mouse myotubes
CN1CCN(CCCN2c3ccccc3Sc3ccc(C(F)(F)F)cc32)CC1 [Trifluoperazine dihydrochloride],AO directed DMD exon 51 skipping,DMD exon 51,enhance AO directed DMD exon 51 skipping
COC(=O)[C@H]1[C@H]2C[C@@H]3c4[nH]c5cc(OC)ccc5c4CCN3C[C@H]2C[C@@H](OC(=O)c2cc(OC)c(OC)c(OC)c2)[C@@H]1OC [Reserpine],efficacy in counter screen and on mdx mouse myotubes,exon skipping,showing efficacy in counter screen and on mdx mouse myotubes
CC1=CC(=O)c2ccccc2C1=O [Menadione],AO directed DMD exon 51 skipping,DMD exon 51,enhances AO directed DMD exon 51 skipping
O=C(Nc1ccc([N+](=O)[O-])cc1Cl)c1cc(Cl)ccc1O [Niclosamide],efficacy in counter screen and on mdx mouse myotubes,exon skipping,showing efficacy in counter screen and on mdx mouse myotubes
CC(=O)c1ccc2c(c1)N(CCCN1CCC(CCO)CC1)c1ccccc1S2 [piperacetazine],AO directed DMD exon 51 skipping,DMD exon 51,enhance AO directed DMD exon 51 skipping
O=C(O)[C@@H]1[C@H]2C[C@H]3c4[nH]c5ccccc5c4CCN3C[C@@H]2CC[C@@H]1O [Yohimbinic acid],AO directed DMD exon 51 skipping,DMD exon 51,enhance AO directed DMD exon 51 skipping
O=c1[nH]c2ccccc2n1C1CCN(CCCC(c2ccc(F)cc2)c2ccc(F)cc2)CC1 [PIMOZIDE],efficacy in counter screen and on mdx mouse myotubes,exon skipping,showing efficacy in counter screen and on mdx mouse myotubes
COC(=O)Nc1nc2cc(Sc3ccccc3)ccc2[nH]1 [Fenbendazole],efficacy in counter screen and on mdx mouse myotubes,exon skipping,showing efficacy in counter screen and on mdx mouse myotubes
COC(=O)[C@H]1[C@H]2C[C@H]3c4[nH]c5ccccc5c4CCN3C[C@H]2CC[C@@H]1O [rauwolscine hydrochloride],AO directed DMD exon 51 skipping,DMD exon 51,enhance AO directed DMD exon 51 skipping
N#C/C(=C\c1ccc(O)c(O)c1)C(=O)Nc1ccccc1 [AG-494],Fluorescence Plate 1,[1]; [3],19.38
same,Fluorescence Plate 2,[1]; [4],25.36
same,Fluorescence Plate 3,[1]; [4],25.25
same,Average Fluorescence (n = 3),[1]; With AON6 screen,23.33
same,Fluorescence Plate 1,[1]; [2],5.92
same,Fluorescence Plate 2,[1]; [2],1.23
same,Fluorescence Plate 3,[1]; [2],1.65
same,Fluorescence Plate 4,[1]; [2],7.58
same,Fluorescence Plate 5,[1]; [2],3.54
same,Fluorescence Plate 6,[1]; [2],5.26
same,Average Fluorescence (n = 6),[1]; Without AON6 screen,4.20
Ryanodine,AO directed DMD exon 51 skipping,DMD exon 51,enhance AO directed DMD exon 51 skipping
same,Fluorescence Plate 1,[1]; [3],7.93
same,Fluorescence Plate 2,[1]; [4],28.86
same,Fluorescence Plate 3,[1]; [4],13.31
same,Average Fluorescence (n = 3),[1]; With AON6 screen,16.70
COc1ccc2c(c1)CN(C)CCS2 [RyCal S107],AO directed DMD exon 51 skipping,DMD exon 51,enhance AO directed DMD exon 51 skipping
